Measurements published in PubChem BioAssay (NCI).
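In this assay, cells in 96-well plates receive the compound at five concentrations for 48 hours. Endpoints are linearly interpolated between the surrounding concentrations. GI50 marks 50% less growth. TGI denotes the concentration required for complete inhibition of growth.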

Assays:
Test in all cases: growth of human tumour cells (NCI), 48 h
A498 renal = test system: A498 renal
HCC-2998 colon = test system: HCC-2998 colon
HCT-116 colon = test system: HCT-116 colon
K-562 leukemia = test system: K-562 leukemia
MDA-MB-231 breast = test system: MDA-MB-231 breast
NCI-H522 lung = test system: NCI-H522 lung
RPMI-8226 leukemia = test system: RPMI-8226 leukemia
RXF 393 renal = test system: RXF 393 renal
SF-268 CNS = test system: SF-268 CNS
SR leukemia = test system: SR leukemia

Compound | GI50 (A498 renal) [µM] | TGI (A498 renal) [µM] | GI50 (HCC-2998 colon) [µM] | TGI (HCC-2998 colon) [µM] | GI50 (HCT-116 colon) [µM] | TGI (HCT-116 colon) [µM] | GI50 (K-562 leukemia) [µM] | TGI (K-562 leukemia) [µM] | GI50 (MDA-MB-231 breast) [µM] | TGI (MDA-MB-231 breast) [µM] | GI50 (NCI-H522 lung) [µM] | TGI (NCI-H522 lung) [µM] | GI50 (RPMI-8226 leukemia) [µM] | TGI (RPMI-8226 leukemia) [µM] | GI50 (RXF 393 renal) [µM] | TGI (RXF 393 renal) [µM] | GI50 (SF-268 CNS) [µM] | TGI (SF-268 CNS) [µM] | GI50 (SR leukemia) [µM] | TGI (SR leukemia) [µM]
CCc1n(Cc2ccc3ccccc3c2)cc[n+]1Cc1ccc2ccccc2c1 | 1.13 | 4.15 | 0.518 | 1.85 | 0.865 | 2.16 | 0.404 | 2.27 | 0.392 | 1.44 | 0.303 | 1.44 | 0.376 | 1.8 | 1.15 | 2.63 | 0.817 | 2.42 | 0.528 | 4.28
C[C@H]1CCC/C=C/[C@@H]2C[C@H](O)C[C@H]2[C@H](O)C(O)C(O)C(=O)O1 (stereo partly drawn) | 2.29 | 7.96 | 2.15 | > 22.4 | 3.38 | 19 | 2.38 | > 23.6 | 2.5 | 4.84 | 2.26 | 4.52 | 2.66 | 14.9 | 2.52 | > 24.6 | 1.19 | > 100 | 1.28 | 3.66
C(#Cc1ccccc1C#Cc1cnccn1)c1cnccn1 | 20.2 | 72.1 | 32.2 | > 100 | 27.8 | > 100 | 9.02 | > 44.3 | 21.4 | > 71.9 | > 39.2 | > 61.7 | 21.2 | > 63.4 | > 100 | > 100 | 17.3 | 55.3 | 6.81 | > 100
Nc1ccccc1SC(CC(=O)c1ccccc1)c1c(Cl)cccc1Cl (stereo not drawn) | 11.2 | 24 | 2.61 | 5.73 | 1.81 | 4.56 | 2.76 | 7.69 | 3.86 | 20.4 | 3.86 | 12.6 | 1.9 | 5.35 | 4.23 | 17.4 | 3.43 | 13.4 | 1.45 | 5.79
COc1cc(/C=C/C(=O)c2cccc(-n3cc(-c4ccccc4)[nH]c3=O)c2)ccc1O | 1.68 | 3.87 | 1.92 | 4.21 | 1.8 | 4.11 | 2.23 | 9.29 | 3.36 | 15.2 | 1.78 | 6.12 | 1.66 | 4.21 | 1.78 | 4.12 | 2.74 | 8.31 | 1.65 | > 100
Cc1ccc(-c2csc3ncnc(Nc4cccc(O)c4)c23)cc1 | 30.8 | 66.5 | 17.2 | 34.1 | 20 | 39.6 | 5.6 | > 100 | > 100 | > 100 | 18.5 | 62.1 | 14.5 | 37 | 48.2 | 81.2 | > 100 | > 100 | 15.2 | 77.5
CC1=C(C(=O)Nc2cc(F)c(F)cc2F)C(c2ccc(N(C)C)cc2)C(C(=O)Nc2cc(F)c(F)cc2F)=C(C)N1 | – | 80.5 | – | > 83 | 30.4 | > 100 | – | > 100 | 19 | > 100 | – | 51 | – | > 68.6 | – | 64.3 | – | > 100 | 18.7 | > 100
O=C1/C(=C/c2ccccc2)CN(C(=O)/C=C/c2ccccc2)C/C1=C\c1ccccc1 | – | 92 | – | 14.2 | – | 2.02 | – | > 43.3 | – | 10.9 | – | 27.7 | – | 10.8 | – | 30.4 | – | 38.7 | – | 4.64
Cc1ccc(S(=O)(=O)NC(=O)Nc2ncn[nH]2)cc1 | – | > 100 | – | > 100 | – | > 100 | – | > 100 | – | > 100 | – | > 100 | – | > 100 | – | > 100 | – | > 100 | – | > 100
CCCCCCCCCCCCNCCCc1ccccc1 | 2.3 | 6.69 | 1.75 | 3.23 | 1.78 | 3.17 | 1.89 | 4.54 | 1.61 | 3.12 | 1.62 | 3.03 | 2.09 | 4.41 | 1.63 | 3.1 | 1.87 | 3.85 | 1.2 | 3.56
CC(=O)OC1C(C)OC(Oc2c(-c3ccc(O)cc3)oc3cc(O)cc(O)c3c2=O)C(O)C1OC(C)=O (stereo not drawn) | > 52.4 | > 100 | 21.9 | 55.2 | 35.1 | > 100 | 30.8 | > 100 | 21.1 | 63.7 | 18.5 | 47.4 | 23.4 | 70.4 | 24.2 | 71.8 | 27 | > 89.5 | 25 | 65
CC(C)OC(=O)NNc1c(Cl)cc(Cl)cc1Cl | – | > 100 | – | > 100 | – | > 100 | – | > 100 | – | > 100 | – | 95.4 | – | > 100 | – | 69.5 | – | > 100 | – | > 100
CCN(CC)CCNc1ccc2nc(C)n3c4ccc(OC)cc4c(=O)c1c23 | – | 20.6 | – | 6.2 | – | 6 | – | 4.13 | – | 16.9 | – | 2.74 | – | 5.34 | – | 10.5 | – | 15.3 | – | 0.56
CCn1cnc(C[C@H](NC(=O)[C@@H](NC(=O)Nc2cc(C(F)(F)F)cc(C(F)(F)F)c2)C(C)(C)C)C(=O)OC)c1 | > 10 | > 10 | > 10 | > 10 | > 10 | > 10 | > 10 | > 10 | > 10 | > 10 | > 10 | > 10 | > 10 | > 10 | > 10 | > 10 | > 10 | > 10 | > 10 | > 10
